Reference: patent US20060052409A1, “Therapeutic or preventive agent for nausea/vomiting” (priority 2002, published 2006)

Key:
[1] = tested on: morphine-induced nausea and vomiting; assay: Morphine-induced nausea and vomiting in beagles; format: in vivo; settings: male beagles; for Anti-emetic effect of test compounds: dose at which the test compounds inhibited nausea and vomiting due to morphine: test compound i.v. 15 minutes before morphine 0.5 mg/kg i.v., observed for ten minutes
Experimental: Male beagles were used for the experiment. Frequencies of nausea and vomiting were visually observed for ten minutes after the administration of morphine.
Morphine (0.5 mg/kg) was intravenously administered into the foreleg of male beagles. […] The test compounds were intravenously administered into the foreleg 15 minutes before the administration of morphine.

[2] = tested on: morphine-induced nausea and vomiting; assay: Morphine-induced nausea and vomiting in ferrets; format: in vivo; settings: male ferrets; morphine 0.1-3 mg/kg s.c.; observed for one hour
Experimental: Male ferrets were used for the experiment. Frequencies of nausea and vomiting were visually observed from immediately after the administration of morphine to one hour after the administration.
Morphine (0.1-3 mg/kg) was subcutaneously administered to male ferrets. […] The inhibitory effects of NTI on nausea and vomiting due to morphine were then studied. NTI (5 mg/kg) was subcutaneously administered 30 minutes before the administration of morphine (0.6 mg/kg).

[3] = tested on: nausea and vomiting due to morphine; settings: literature report; cited from earlier work

Row | SMILES | Anti-emetic effect of test compounds: dose at which the test compounds inhibited nausea and vomiting due to morphine [1] [mg/kg] | further results
1 | Oc1ccc2c3c1O[C@H]1c4c(c5cc(F)cc6c5n4CCC6)C[C@@]4(O)[C@@H](C2)N(CC2CC2)CCC314 [Compound 3, 17-(cyclopropylmethyl)-6,7-didehydro-4,5α-epoxy-3,14β-dihydroxy-1′,7′-trimethylene-5′-fluoro-6,7-2′,3′-indolomorphinan] | 1.0 | –
2 | Oc1ccc2c3c1O[C@H]1c4nc5ccccc5cc4C[C@@]4(O)[C@@H](C2)N(CC2CC2)CCC314 [Compound 5, 17-(cyclopropylmethyl)-6,7-didehydro-4,5α-epoxy-3,14β-dihydroxy-6,7-2′,3′-quinolinomorphinan] | 1.0 | –
3 | C[S+]([O-])c1cccc2c3c([nH]c12)[C@@H]1Oc2c(O)ccc4c2C12CCN(CC1CC1)[C@H](C4)[C@]2(O)C3 (stereo partly drawn) [Compound 2, 17-(cyclopropylmethyl)-6,7-didehydro-4,5α-epoxy-3,14β-dihydroxy-7′-methylsulfinyl-6,7-2′,3′-indolomorphinan] | 1.0 | –
4 | O=C1/C(=C/c2ccccc2)C[C@@]2(O)[C@H]3Cc4ccc(O)c5c4[C@@]2(CCN3CC2CC2)[C@H]1O5 [Compound 7, 7-benzylidene-17-(cyclopropylmethyl)-4,5α-epoxy-3,14β-dihydroxy-6-oxomorphinan] | 1.0 | –
5 | CN1CC[C@]23c4c5ccc(O)c4O[C@H]2[C@@H](O)C=C[C@H]3[C@H]1C5 [Morphine, morphine, reference compound] | – | Induction of nausea and vomiting [2]: remarkably induced at lower doses; Induction of nausea and vomiting ([1]; morphine 0.5 mg/kg i.v.): remarkably induced within 5 minutes
6 | C=CCN(CC=C)[C@@H](Cc1ccc(O)cc1)C(=O)NCC(=O)NCCS[C@@H](Cc1ccccc1)C(=O)N[C@@H](CC(C)C)C(=O)O [ICI-154129] | – | Anti-emetic effect against nausea and vomiting due to morphine [3]: cannot inhibit vomiting due to morphine
7 | C=CCN1CC[C@]23c4c5ccc(O)c4O[C@H]2C(=O)CC[C@@]3(O)[C@H]1C5 [naloxone] | – | Anti-emetic effect against nausea and vomiting due to morphine [3]: shows anti-emetic effects
8 | Cc1c2c(nc3ccccc13)[C@@H]1Oc3c(O)ccc4c3C13CCN(CC1CC1)[C@H](C4)[C@]3(O)C2 [Compound 6, 17-(cyclopropylmethyl)-6,7-didehydro-4,5α-epoxy-3,14β-dihydroxy-6,7-2′,3′-(4′-methylquinolino)morphinan] | 3.0 | –
9 | Cn1c2c(c3ccc4c(c31)CCCC4)C[C@@]1(O)[C@H]3Cc4ccc(O)c5c4C1(CCN3CC1CC1)[C@H]2O5 [Compound 4, 17-(cyclopropylmethyl)-6,7-didehydro-4,5α-epoxy-3,14β-dihydroxy-6′,7′-cyclohexeno-1′-methyl-6,7-2′,3′-indolomorphinan] | 3.0 | –
